Values of other authors, collected in patent US5714511A, “Selective prevention of organ injury in sepsis and shock using selection release of nitric oxide in vulnerable organs” (The United States of America as represented by the …, priority 1995, dated 1998).

Legend:
[1] = tested on: hemorrhagic shock in rats
[2] = tested on: DNA synthesis

Compound	solubility in aqueous media	protective effect in hemorrhagic shock [1]	inhibition of DNA synthesis [2]
Nitric oxide	limited solubility in aqueous media	–	–
CC(=O)N[C@H](C(=O)O)C(C)(C)SN=O [SNAP, S-nitroso-N-acetyl-penicillamine]	–	significant protective effects of SNAP in hemorrhagic shock in rats	effective at inhibiting DNA synthesis
